These results are taken from ChEMBL document CHEMBL1201862, “PubChem BioAssay data set” (2004).

SMILES strings stand for the structures. The source made the active and inactive calls.

In experiment [1] the target is T1, Probable nicotinate-nucleotide adenylyltransferase (Staphylococcus aureus (strain N315), UniProt P65502). It is filed as functional, Staphylococcus aureus subsp. aureus N315.
Experiment [2] deals with T1, Probable nicotinate-nucleotide adenylyltransferase. It is filed as functional, Staphylococcus aureus subsp. aureus N315. The conditions noted are these: read-out: IC50_Mean.
Experiment [3] can be described thus: Counterscreen for inhibitors of Trypanosoma brucei methionyl tRNA synthetase (MetRS): Luminescence-based cell-based high throughput dose response assay to identify compounds that are cytotoxic to Jurkat human T lymphocyte cells. It is filed as functional.
Experiment [4] concerns the target T2, Methionyl-tRNA synthetase, putative (Trypanosoma brucei brucei, UniProt Q38C91).
T2 sequence (Q38C91 whole entry): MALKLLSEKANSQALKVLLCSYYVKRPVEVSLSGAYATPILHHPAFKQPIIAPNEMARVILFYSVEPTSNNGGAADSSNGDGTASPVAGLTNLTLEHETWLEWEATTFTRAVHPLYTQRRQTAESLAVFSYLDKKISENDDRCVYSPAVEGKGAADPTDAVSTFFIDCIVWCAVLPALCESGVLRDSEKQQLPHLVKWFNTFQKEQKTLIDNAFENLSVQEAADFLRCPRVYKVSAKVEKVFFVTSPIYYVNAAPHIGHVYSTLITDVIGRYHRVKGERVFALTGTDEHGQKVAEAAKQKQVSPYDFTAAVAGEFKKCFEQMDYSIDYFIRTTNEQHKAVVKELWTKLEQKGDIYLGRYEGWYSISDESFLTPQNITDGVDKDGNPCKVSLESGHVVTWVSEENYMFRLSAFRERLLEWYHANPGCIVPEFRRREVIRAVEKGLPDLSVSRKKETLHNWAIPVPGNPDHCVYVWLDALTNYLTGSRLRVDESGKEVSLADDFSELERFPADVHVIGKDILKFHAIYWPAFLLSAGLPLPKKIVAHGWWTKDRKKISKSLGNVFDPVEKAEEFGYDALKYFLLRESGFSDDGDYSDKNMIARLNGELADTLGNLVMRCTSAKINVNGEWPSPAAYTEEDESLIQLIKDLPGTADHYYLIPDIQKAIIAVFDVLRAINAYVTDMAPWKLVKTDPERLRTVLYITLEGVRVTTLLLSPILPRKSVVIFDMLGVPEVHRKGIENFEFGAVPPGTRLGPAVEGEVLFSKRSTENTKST
It is filed as functional, Trypanosoma brucei brucei strain 927/4 GUTat10.1.

Experiment [5] in a line: NIH3T3 cell viability loss – ATP luminescence, mouse fibroblasts, counter-screen, dose response (AID 2010).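 Further: cells exposed to compound for about 90 hours before reading.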 It is filed as functional, cell-based.
Experiment [6] can be described thus: Trypanosoma cruzi growth suppression in host cells – NIH3T3 host cells, beta-gal luminescence, confirmation (AID 2044).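 Further: intracellular parasites grown in NIH/3T3 mouse fibroblasts as host cells; luminescent beta-galactosidase reporter signal from transgenic T. cruzi replicating inside host cells; inhibitors lower the luminescence signal.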 Type of experiment: functional, cell-based.
Experiment [7] has as its target T2, Methionyl-tRNA synthetase, putative. Type of experiment: functional, Trypanosoma brucei brucei strain 927/4 GUTat10.1. This is another data set of the same source.
Experiment [8] in a line: cytotoxicity toward MDA-MB-231 breast cancer cells – cell-based, CellTiter-Glo luminescence, cherry-pick, cytotoxicity control for RAD54 inhibitor project, dose response (AID 651692). It is filed as functional.
The nature of experiment [9]: Luminescence Cell-Based Dose Response HTS to Identify Activators of Luciferase Translation or Activity in H4 […] Cells. [Related pubchem assays: 1829 (Project Summary), 1814 (Primary HTS)]. It is filed as functional.
A short description of experiment [10]: Luminescence Cell-Based Dose Confirmation HTS to Identify Activators of 5'UTR Stem-Loop Driven Alpha-Synuclein mRNA Translation in H4 Neuroglioblastoma Cells. [Related pubchem assays: 1829 (Project Summary), 1814 (Primary HTS)]. Type of experiment: functional.
The target of experiment [11] is T3, DNA repair and recombination protein RAD54-like (Homo sapiens, UniProt Q92698).
T3 sequence (Q92698 whole entry): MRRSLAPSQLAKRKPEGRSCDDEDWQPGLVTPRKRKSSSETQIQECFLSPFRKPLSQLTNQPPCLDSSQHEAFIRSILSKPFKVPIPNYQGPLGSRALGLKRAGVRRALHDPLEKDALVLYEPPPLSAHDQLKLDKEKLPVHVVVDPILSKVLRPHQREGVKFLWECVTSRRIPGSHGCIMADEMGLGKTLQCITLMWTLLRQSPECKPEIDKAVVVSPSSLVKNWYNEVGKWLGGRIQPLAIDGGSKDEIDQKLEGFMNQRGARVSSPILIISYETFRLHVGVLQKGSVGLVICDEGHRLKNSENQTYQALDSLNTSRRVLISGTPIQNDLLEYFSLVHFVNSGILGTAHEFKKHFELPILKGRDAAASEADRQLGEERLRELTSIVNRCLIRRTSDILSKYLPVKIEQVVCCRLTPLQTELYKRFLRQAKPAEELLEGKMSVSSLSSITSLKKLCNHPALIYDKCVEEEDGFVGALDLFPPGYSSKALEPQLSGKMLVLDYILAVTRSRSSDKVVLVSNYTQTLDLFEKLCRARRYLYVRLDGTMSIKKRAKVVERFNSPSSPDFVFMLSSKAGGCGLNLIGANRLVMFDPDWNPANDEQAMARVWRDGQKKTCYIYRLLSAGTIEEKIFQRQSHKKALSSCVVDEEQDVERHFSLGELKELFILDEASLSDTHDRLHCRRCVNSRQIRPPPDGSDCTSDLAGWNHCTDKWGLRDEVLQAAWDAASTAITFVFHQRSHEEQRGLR
In words: RAD54 Holliday junction migration blockers – biochemical, fluorescence, cherry-picked samples, dose series, confirmation (AID 651657). Type of experiment: functional.

The subject of the next experiment is H4. Briefly: Luminescence Cell-Based Dose Response HTS to Identify Activators of 5'UTR Stem-Loop Driven Prion Protein mRNA Translation in H4 Neuroglioblastoma Cells. [Related pubchem assays: 1829 (Project Summary), 1814 (Primary HTS)]. It is filed as functional. The note with it: Homo sapiens.
Experiment [12] can be described thus: microbe, parasite or virus in culture. It is filed as functional. The conditions noted are these: Mycobacterium tuberculosis.
Experiment [13] has as its target T4, DNA repair protein RAD52 homolog (Homo sapiens, UniProt P43351).
T4 sequence (P43351 whole entry): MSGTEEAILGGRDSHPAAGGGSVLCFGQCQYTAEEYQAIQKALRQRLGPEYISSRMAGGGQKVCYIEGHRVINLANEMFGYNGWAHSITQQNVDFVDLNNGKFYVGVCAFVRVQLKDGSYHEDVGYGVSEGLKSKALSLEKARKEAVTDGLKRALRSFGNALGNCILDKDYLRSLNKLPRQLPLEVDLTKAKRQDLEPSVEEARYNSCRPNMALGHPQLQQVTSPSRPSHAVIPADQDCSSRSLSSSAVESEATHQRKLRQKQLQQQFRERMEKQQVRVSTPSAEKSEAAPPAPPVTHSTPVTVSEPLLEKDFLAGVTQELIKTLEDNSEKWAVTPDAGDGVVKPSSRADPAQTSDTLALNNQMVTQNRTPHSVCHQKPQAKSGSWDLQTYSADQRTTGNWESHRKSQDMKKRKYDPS
Type of experiment: functional, biochemical.

The target in experiment [14] is 5-hydroxytryptamine receptor 2A (Mus musculus, UniProt P35363). Type of experiment: functional, cell-based.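 Further: CHO-K1 cells with tagged receptor and beta-arrestin; agonist potency measured as compound-induced activation of the receptor.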
In another experiment the target is Mu-type opioid receptor (Homo sapiens, UniProt P35372). It is filed as functional, cell-based.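 Further: U2OS cells with beta-arrestin recruitment to OPRM1 by beta-gal complementation.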
The nature of experiment [15]: blockers of CRF-binding protein–CRF-R2 complex – cell-based, uHTS hits, 384-well, dose response (AID 651639). The note with it: read-out: IC50_Mean. It is filed as functional, Homo sapiens.
The target of experiment [16] is T5, Corticotropin-releasing factor receptor 2/Corticotropin-releasing factor-binding protein (Homo sapiens, UniProt P24387+Q13324).
T5 sequence (Q13324 whole entry): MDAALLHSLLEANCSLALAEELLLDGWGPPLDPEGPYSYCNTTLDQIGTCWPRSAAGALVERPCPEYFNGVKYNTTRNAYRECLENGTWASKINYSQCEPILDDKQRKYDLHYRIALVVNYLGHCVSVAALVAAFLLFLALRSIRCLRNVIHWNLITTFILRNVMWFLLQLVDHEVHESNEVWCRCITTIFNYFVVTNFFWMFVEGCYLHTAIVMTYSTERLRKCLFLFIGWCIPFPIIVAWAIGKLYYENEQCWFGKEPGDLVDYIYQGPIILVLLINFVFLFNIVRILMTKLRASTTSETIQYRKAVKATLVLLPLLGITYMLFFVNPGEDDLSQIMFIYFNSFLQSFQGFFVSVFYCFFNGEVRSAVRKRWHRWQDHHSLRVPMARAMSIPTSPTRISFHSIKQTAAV
T5 sequence (P24387 whole entry): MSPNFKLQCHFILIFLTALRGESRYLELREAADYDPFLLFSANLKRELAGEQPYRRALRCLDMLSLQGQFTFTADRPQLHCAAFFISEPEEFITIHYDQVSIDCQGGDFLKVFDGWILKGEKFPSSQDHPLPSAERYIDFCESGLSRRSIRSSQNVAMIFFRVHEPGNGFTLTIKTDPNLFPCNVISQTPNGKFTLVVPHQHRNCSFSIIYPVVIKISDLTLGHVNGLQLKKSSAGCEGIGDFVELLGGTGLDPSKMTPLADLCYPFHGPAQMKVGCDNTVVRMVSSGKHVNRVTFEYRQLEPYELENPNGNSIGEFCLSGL
In words: activators of CRF receptor 2 with binding protein – uHTS hits, confirmation (AID 602473). It is filed as functional. The conditions noted are these: read-out: EC50_Mean.

The target of experiment [17] is T5, Corticotropin-releasing factor receptor 2/Corticotropin-releasing factor-binding protein. Briefly: Dose Response confirmation of uHTS hits for small molecule antagonists of the CRF-binding protein and CRF-R2 receptor complex. Type of experiment: functional. The note with it: read-out: IC50_Mean.
The target of experiment [18] is T6, Adenosylmethionine-8-amino-7-oxononanoate aminotransferase (Mycobacterium tuberculosis, UniProt P9WQ81).
T6 sequence (P9WQ81 whole entry): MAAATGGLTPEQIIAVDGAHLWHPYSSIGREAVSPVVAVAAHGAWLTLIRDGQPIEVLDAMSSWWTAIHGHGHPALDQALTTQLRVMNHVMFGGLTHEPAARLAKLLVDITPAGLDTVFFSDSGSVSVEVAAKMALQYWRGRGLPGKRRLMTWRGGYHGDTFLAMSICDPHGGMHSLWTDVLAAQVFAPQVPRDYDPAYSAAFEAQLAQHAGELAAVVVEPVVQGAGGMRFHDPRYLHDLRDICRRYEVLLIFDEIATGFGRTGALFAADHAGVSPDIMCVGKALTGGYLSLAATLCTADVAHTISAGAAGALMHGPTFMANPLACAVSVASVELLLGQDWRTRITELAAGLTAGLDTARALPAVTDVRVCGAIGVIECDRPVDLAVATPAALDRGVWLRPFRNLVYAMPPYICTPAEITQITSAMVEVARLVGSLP
Briefly: Mycobacterium tuberculosis BioA enzyme inhibitor Measured in Biochemical System Using Plate Reader - 2163-02_Inhibitor_Dose_CherryPick_Activity. It is filed as functional, Mycobacterium tuberculosis UT205.

The next experiment deals with Nonstructural protein 1 (Influenza A virus, UniProt Q194T2). It is filed as functional, Influenza A virus (A/California/07/2009(H1N1)).
Chain of Nonstructural protein 1 (Q194T2 whole entry): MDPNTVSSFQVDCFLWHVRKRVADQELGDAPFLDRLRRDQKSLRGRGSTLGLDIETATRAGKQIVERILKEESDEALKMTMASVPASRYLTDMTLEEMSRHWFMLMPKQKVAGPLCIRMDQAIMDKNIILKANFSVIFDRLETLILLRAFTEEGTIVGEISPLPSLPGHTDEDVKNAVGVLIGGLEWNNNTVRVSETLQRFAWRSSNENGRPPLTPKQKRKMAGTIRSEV

T1 sequence (P65502 whole entry): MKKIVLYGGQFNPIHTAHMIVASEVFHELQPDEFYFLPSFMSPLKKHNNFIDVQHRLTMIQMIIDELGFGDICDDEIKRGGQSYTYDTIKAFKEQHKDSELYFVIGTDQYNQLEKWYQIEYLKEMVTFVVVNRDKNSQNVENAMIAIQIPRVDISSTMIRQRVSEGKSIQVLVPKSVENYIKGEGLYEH
Chain of 5-hydroxytryptamine receptor 2A (P35363 whole entry): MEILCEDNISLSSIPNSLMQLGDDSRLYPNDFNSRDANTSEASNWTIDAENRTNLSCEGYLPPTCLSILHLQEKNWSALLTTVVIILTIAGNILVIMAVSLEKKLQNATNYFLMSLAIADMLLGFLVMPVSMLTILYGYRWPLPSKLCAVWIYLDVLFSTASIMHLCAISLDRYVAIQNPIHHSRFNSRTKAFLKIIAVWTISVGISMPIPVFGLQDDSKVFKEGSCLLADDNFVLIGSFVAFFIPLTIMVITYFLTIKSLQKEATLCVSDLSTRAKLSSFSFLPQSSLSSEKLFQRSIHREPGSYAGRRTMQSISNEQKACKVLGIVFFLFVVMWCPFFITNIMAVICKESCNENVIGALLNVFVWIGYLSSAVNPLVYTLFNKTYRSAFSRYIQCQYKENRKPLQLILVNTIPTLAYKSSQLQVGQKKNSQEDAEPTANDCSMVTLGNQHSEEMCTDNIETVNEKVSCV
Chain of Mu-type opioid receptor (P35372 whole entry): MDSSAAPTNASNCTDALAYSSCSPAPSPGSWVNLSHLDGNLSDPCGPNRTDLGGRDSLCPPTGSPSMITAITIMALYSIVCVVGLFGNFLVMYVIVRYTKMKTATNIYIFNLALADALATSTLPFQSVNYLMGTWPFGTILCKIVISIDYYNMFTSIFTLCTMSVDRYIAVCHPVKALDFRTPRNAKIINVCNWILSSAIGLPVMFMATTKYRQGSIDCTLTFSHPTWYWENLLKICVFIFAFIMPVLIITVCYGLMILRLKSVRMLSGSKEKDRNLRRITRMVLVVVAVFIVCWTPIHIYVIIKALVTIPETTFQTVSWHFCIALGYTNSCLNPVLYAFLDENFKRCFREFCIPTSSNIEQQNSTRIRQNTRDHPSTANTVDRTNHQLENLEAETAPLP

For `Cc1ccc(-c2cc(-c3ccc(C)o3)nc(N)c2C#N)cc1`, the IC50 is 1.62 µM (active) in experiment [1] and 2.43 µM (active) in experiment [2].

With `Cc1cc2c(c(=O)n1CC1CCCO1)C(c1ccc3c(c1)OCO3)C(C#N)=C(N)O2` (configuration not stated), the IC50 in experiment [3] is 83.3 µM (inactive); in experiment [4], 119 µM (inactive).

Regarding `O=C1[C@@H]2Cc3c([nH]c4ccccc34)C(c3cccc([N+](=O)[O-])c3)N2C(=O)CN1C1CCN(Cc2ccccc2)CC1` (some centres not stated), the IC50 in experiment [3] was 27.1 µM (inactive); in [4], 1.82 µM (active); in experiment [7], 3.18 µM (active). Further, the EC50 in experiment [5] is 9.77 µM (active); in experiment [6] it was 1.8 µM (active).

Regarding `Cc1ccc(C(=O)c2oc3ccc(Cl)cc3c2NC(=O)CN2CCN(C)CC2)cc1`, the AC50 in experiment [8] is 11.5 µM (active); in experiment [11], 11.8 µM (active); in [13], 5.97 µM (active). The EC50 (in [9]; in experiment [10]; in the experiment with H4) was > 120 µM (not active) throughout. Moreover, the CC50 in [12] is 14.2 µM (active).

Regarding `COc1cccc2c1cc1c(=O)n(CC(=O)N3CCC(C)CC3)nc(C)n12`, the figures for the EC50 (in experiment [14]; on Mu-type opioid receptor) were 13.6 µM (inactive) and 92.5 µM (inactive), respectively.

Take `CN(C)c1ccc(C=C2C(=O)OC3(CCCC3)OC2=O)cc1`: the results for the IC50 in experiment [15] and in experiment [17] were 2.36 µM (active) and 2.41 µM (active), respectively. Also, the EC50 in experiment [16] was 44.2 µM (active).

For `Cc1nc2c(C(=O)N3CCN(c4ccccn4)CC3)cnn2c(C)c1Cc1cccc(Cl)c1`, in experiment [18], the AC50 was 3.39 µM (active).

As for `CCc1nn(CCCC(=O)N(C)Cc2ccccc2)c(=O)c2cc3occc3n12`, in experiment [18], the AC50 is 4.73 µM (active).

`Cc1cc(C)cc(NC(=O)C(OC(=O)c2ccc(NC(=O)CC#N)cc2)c2ccccc2)c1` (configuration not stated): the results for the IC50 in experiment [1] and in [2] were 14.6 µM (active) and 22.3 µM (active), respectively.

Turning to `CCOc1ccc(N/N=C2\C(=O)Nn3c2nc2c(c3=O)CCCC2)cc1`, the values for the IC50 (in [15]; at Nonstructural protein 1; in [17]) were > 20 µM (inactive), > 100 µM (active) and 4.73 µM (active), respectively. In [16], the EC50 was > 53 µM (inactive).

In the case of `CN1c2ccc(-c3cccc(F)c3)cc2[C@H]2[C@H](CCN2C(=O)c2ccncc2)[C@H]1CO`, the AC50 in experiment [18] is 0.816 µM (active).

With `O=C1NC[C@H](Cc2ccccc2)N(C[C@@H]2CCCN2C[C@H](Cc2ccccc2)N2C[C@H](Cc3ccc(O)cc3)N(CCc3ccccc3)C(=O)C2=O)C1=O`, the IC50 is 6.91 µM (active) in experiment [1] and 30.8 µM (active) in experiment [2].
